Test results: publication PMC11109052, “Metabolism characterization and toxicity of N-hydap, a marine candidate drug for lung cancer therapy by LC–MS method” (Natural Products and Bioprospecting, 2024)

Columns and labels:
[1] = tested on: MKMs; assay: Kinetics of N-hydap glucuronidation in MKMs; format: in vitro ADME, mouse; details: MKM
Experimental: In this study, the rats were executed by drawing blood from the abdominal aorta and mice were sacrificed with cervical dislocation before the liver and kidneys were excised. The liver and kidneys were removed, and washed with chilled cleansing solution (contains 8 mM KH2PO4, 5.6 mM EDTA·K2·2H2O, 1 mM DTT and 229.6 μM PMSF), homogenized in a tissue homogenate buffer with a pH of 7.4, (consisting of […], 8 mM K2HPO4, 250 mM sucrose, 1 mM EDTA·K2·2H2O and 229.6 μM PMSF). Subsequently, the homogenate was centrifuged at 10,400 rpm at 4 °C for 15 min, and the supernatant was then centrifuged at 35,000 rpm at 4 °C for 60 min. A 250 mM sucrose buffer was added to the pellet to reconstitute and the resuspension was stored at − 80 °C until use. Microsome protein concentrations were measured by Omni-Easy™ Instant BCA Protein Assay Kit.
Various microsomes including HLMs, HKMs, HIMs, RLMs, RKMs, MLMs and MKMs were involved in CYP and UGT reactions of N-hydap. […]
The substrate concentrations used for HLMs were 0.05, 0.5, 2, 2.5, 5, 10, 25, 50, and 100 μM. […] The rates of N-hydap-G by enzymes were expressed as nmol/mg/min, representing the amount of metabolites formed per minute per milligram of protein. Kinetic parameters were determined by analyzing the Eadie–Hofstee plots. […]

[2] = tested on: Ugt1a9; assay: Real-time PCR mRNA level after 7 days gavage: Ugt1a9; format: in vivo, mice; design: key to UGT1A9 mNA expression: ↑: up-regulation; ↓: down-regulation; –: no change
Experimental: Mice were randomly divided into four groups, with eight animals in each group. The mice received oral pretreatment with N-hydap for 7 days at doses of 2, 5, and 10 mg/kg/day, which were considered as the low dose, medium dose, and high dose, respectively. Correspondingly, the control group received PBS. On the 8th day, the liver and kidneys were removed, and organs from eight mice per group were combined to prepare MLMs and MKMs using the detailed procedures above. Subsequently, we determined the activity of CYP and UGT enzymes by specific substrate metabolized with MLMs (0.5 mg/mL) and MKMs (0.2 mg/mL) in vitro. Specifically, the following selective substrates were used for the respective enzymes: PH (1 μM) for CYP1A2, DIC (1 μM) for CYP2C9, MP (90 μM) for CYP2C19, DM (1 μM) for CYP2D6, CZX (10 μM) for CYP2E1, Tes (1 μM) for CYP3A4, SN38 (1 μM) for UGT1A1, CACD (100 μM) for UGT1A3, Sero (20 μM) for UGT1A6, and Prop (1 μM) for UGT1A9. All substrates were dissolved in methanol or DMSO. The incubation procedure was carried out as mentioned above, and the reaction was terminated with VER (20 ng/mL) in ESI+ mode and CLP (200 ng/mL) in ESI− mode. In the ex vivo experiments, the activity of enzymes was measured by quantifying the production of various metabolites (nM/mg protein/min). The metabolites and their corresponding enzymes are as follows: APAP from PH, 4-OH-DIC from DIC, 4-OH-MP from MP, DXO from DM, 6-OH-CZX from CZX, 6-OH-Tes from Tes, SN38-G from SN38, CACD-G from CACD, Sero-G from Sero, Prop-G from Prop. The measurements were performed using multiple reaction monitoring (MRM) transitions, which are specific mass spectrometry transitions used for quantification. […]
Total RNA from liver and kidney samples taken after 7 days of N-hydap gavage was extracted using the Animal Total RNA Isolation Kit (Foregene, Chengdu, Sichuan, China) following the manufacturer’s instructions. The concentrations of total RNA were determined by a nucleic acid concentration tester at 260/280 nm. […]

SMILES: CC1CCC2C(C=CC(C)C2C(=O)c2c(O)c(C3(O)CCC(O)C4OC43)cn(O)c2=O)C1 (stereo not shown) [N-hydap, N-Hydroxyapiosporamide]
- Km [1]: 405 µM
- UGT1A9 mNA expression ([2]; Kidney): –
- UGT1A9 mNA expression ([2]; Liver): –
- mRNA levels of Ugt1a9 ([2]; mice, 2, 5, 10 mg/kg p.o. 7 days): No significant changes
